Reference: patent publication US4973708A, “3-hydroxy-N-methylpyrrolidone and preparation thereof” (University of Kentucky Research Foundation, priority 1988, dated 1990)

What was measured:
[1] = assay type: in vitro ADME, human
Experimental: Standard Franz diffusion cells (15 mm i.d., o-ring design) were manufactured by Crown Glass Inc., Somerville, N.J. The cell caps were modified with ground glass joints to fit 14/20 ground glass stoppers. A Franz diffusion cell drive console F-DCD-9 was also manufactured by Crown Glass. A Vandercamp 2500 recirculating water bath was used to maintain the cells at 37° C. Split thickness human allograph tissues (0.015 in. thickness), thigh back area, was obtained from the Tissue Transplant Bank, St. Agnes Medical Center, Philadelphia, Pa. Samples were counted in a Packard Auto-Gamma Scintillation Spectrometer.
Sterile Saline (0.9% Sodium Chloride USP, Travenol, NDC 0338-0049-04 lot co56747), Albumin (Bovine, fraction v, Sigma A-4503 lot 127F-0877), N-Methyl-2-pyrrolidone (Aldrich 99+ % Cat No. 24,279-9 lot 04402TP), Neomycin Sulfate (Sigma N-1876 lot 66F-0151), absolute ethanol (Midwest Solvents Company of Illinois).
Human allograph tissue, which had been stored at -70° C., was thawed and immediately mounted in a Franz type diffusion cell. The receptor chamber was filled with normal saline containing 2% albumin and 0.05% neomycin sulfate. Each cell was maintained at 37° C. and stirred at 600 rpm. After the cells had been allowed to equilibrate for 4 to 6 hours, 200 ul of a saturated ethanolic solution of 5-chloro-8-hydroxy-7-[^125I]-iodoquinoline (approx. 70 uCi, 0.44 mg) was applied to the donor side of each cell. This was immediately followed by either 200 μl of absolute ethanol for the control cells, 200 μl of 50% (w/v 3-hydroxy-N-methylpyrrolidone in ethanol or an equimolar ethanolic solution of N-methylpyrrolidone (43.1% w/v). The cells were then capped with ground glass stoppers. At various time intervals, over an 80-100 hour period, the entire contents of the receptor chamber was removed with a 10 cc syringe and placed into a vial. The receptor chamber was then refilled with fresh solution. After the last collection these vials were placed in a well-type gamma counter and counted for I-125 activity.
At the time of dosing 200 μl of the saturated 5-chloro-8-hydroxy-7-[^125 I]-iodoquinoline solution was placed into separate vials to calculate the amount of activity (dose) applied to the skin.
In this example, 3-hydroxy-N-methyl pyrrolidone was tested for its use as a percutaneous penetration enhancer. In vitro studies were carried out using Franz type diffusion cells. The penetration enhancing properties of 3-hydroxy-N-methylpyrrolidone was compared to N-methyl pyrrolidone, a compound known to enhance the penetration of drugs through the skin.
For these in vitro studies radioiodinated 5-chloro-8-hydroxy-7-iodoquinoline was chosen as a model drug. This drug, known as Clioquinol USP, is currently marketed by Ciba (Ciba Pharmaceutical Company, 556 Morris Avenue, Summit, N.J. 07901), as a topical antibacterial/antifungal agent trade named Vioform™. […] This radiolabeled marker is conveniently used to follow the penetration of the drug through the skin.
Franz diffusion cells are designed to mimic in vivo conditions. A finite dose of drug is applied to the stratum corneum side of the skin and penetration is followed by analyzing for the drug in the receptor phase underneath. In these studies the amount of drug crossing the skin barrier is estimated by counting total radioactivity in the receptor phase.
In a preliminary study, the transdermal absorption of Clioquinol was evaluated in the presence of 3-hydroxy-N-methylpyrrolidone, N-methylpyrrolidone, and in the absence of enhancer. An ethanolic solution of [I-131]-Clioquinol was applied to 3 cells followed by either ethanol (control), 50% 3-hydroxy-N-methylpyrrolidone in ethanol or an equimolar solution of N-methylpyrrolidone. In FIG. 1, the percent penetration of 5-chloro-8-hydroxy-7-[^131 I]-iodoquinoline through human skin is illustrated. The amount of 5-chloro-8-hydroxy-7-[^131 I]-iodoquinolineactivity applied is equal to 100%.
The study was repeated using I-125 labeled Clioquinol. […]

[2] = Metabolism of N-methylpyrrolidone, metabolite excreted in urine
Excerpt: As pointed out above, a penetration enhancer is a chemical compound which, when included in a transdermal formulation, affects the skin of a human by increasing permeability of the skin to allow more of a drug to be absorbed in a shorter period of time. The penetration enhancer is normally contained in a formulation, called a transdermal composition, in combination with the appropriate drug to be delivered and other known components of the formulation. […] As mentioned herein, N-methylpyrrolidone is a known penetration enhancer. In studies leading to this invention using the prior art compound, N-methyl-2-pyrrolidone, it was discovered that a major metabolite of N-methylpyrrolidone which is excreted in the urine is 3-hydroxy-N-methyl-2-pyrrolidone. […] Further, 3-hydroxy-N-methylpyrrolidone is a "softer" xenobiotic to the body because no energy will be expended in metabolic processes after the compound's absorption into the systemic circulation. Also, in view of the apparent safety of N-methylpyrrolidone, its major metabolite, 3-hydroxy-N-methylpyrrolidone, would be expected to have an even lower toxicity.

[3] = animal and human experiments; cited from earlier work
[4] = cited from earlier work

amount of Clioquinol penetrating the skin, times greater than with N-methylpyrrolidone [1] [times]	amount of Clioquinol penetrating the skin, times higher than the control [1] [times]	amount of I-131 Clioquinol penetrated, times greater than the control [1] [times]	amount of I-131 Clioquinol penetrated, times more than with N-methylpyrrolidone [1] [times]	effectiveness in enhancing the absorption of drugs (conclusion in words) [1]	percent of Clioquinol absorbed in the presence of enhancer [1] [%]	percent penetration of I-125 labeled Clioquinol through human skin (absorbed), with enhancer [1] [%]	percent penetration of [I-131]-Clioquinol through human skin (absorbed), with enhancer [1] [%]	major metabolite excreted in the urine [2]	percent penetration of I-125 labeled Clioquinol through human skin (absorbed), control [1] [%]	percent penetration of [I-131]-Clioquinol through human skin (absorbed), control [1] [%]	time in which the same amount of Clioquinol was absorbed, absence of enhancer [1] [h]	Compound	relative order of enhancement of Clioquinol penetration [1]	irritation or sensitization potential [3]	penetration enhancement ([4]; literature)	absorption through the skin ([4]; reason for choice as model drug)
1.3	1.8	3.9	1.5	more effective than N-methylpyrrolidone	19	40.0	10.2	–	–	–	–	CN1CCC(O)C1=O (stereo not shown) [3-hydroxy-N-methylpyrrolidone, 3-hydroxy-N-methyl-2-pyrrolidone]	3-hydroxy-N-methylpyrrolone >N-methylpyrrolone>control	–	–	–
–	–	–	–	–	–	27.8	6.5	3-hydroxy-N-methyl-2-pyrrolidone	–	–	–	CN1CCCC1=O [N-methylpyrrolidone, N-methyl-2-pyrrolidone]	N-methylpyrrolone>control	very little irritation or sensitization potential	effective penetration enhancer	–
–	–	–	–	–	–	–	–	–	19.5	2.6	85	Oc1c(I)cc(Cl)c2cccnc12 [Clioquinol, 5-chloro-8-hydroxy-7-iodoquinoline]	–	–	–	absorbed very slowly through the skin
